Consider 13 compounds from US8357694B2, “Substituted 5,6-dihydro-6-phenylbenzo[F]isoquinolin-2-amine compounds” (ArQule, Inc., priority 2008, dated 2013).

Structures can show the parent of a compound that is named as a salt.

In one series the target is T1, FGFR2 kinase (Homo sapiens, UniProt P21802, N549H).
T1 construct: purchased Millipore 14-742
Briefly: fluorescent ELISA FGFR2 kinase assay (biochemical). The settings on record: FGFR2 (N549H); read-out: Biochemical data (IC50-μM) FGFR2 (N549H). On the procedure:
The enzymatic assays described herein are conducted according to the following procedures from commercially available reagents. In one, non limiting, example, a fluorescent ELISA assay is used to identify and characterize inhibitors of FGFR2 kinase as described herein. This heterogeneous assay utilizes a biotinylated peptide with a tyrosine motif as a substrate and an anti-phospho-tyrosine antibody to measure phosphorylation of the substrate. […] The reaction is incubated for 60 minutes. As the reaction proceeds, FGFR2 phosphorylates tyrosines in the peptide. […] Peptides are captured for 30 minutes at room temperature, the phosphorylation of peptides continues during this phase. The reaction is stopped by washing the streptavidin-coated plate 6 times with TBST. […] Unbound anti-phospho-tyrosine antibody is removed by washing the streptavidin-coated plate 6 times with TBST. […] Unbound secondary antibody is removed by washing the streptavidin-coated plate 6 times with TBST.
(In general: An ELISA detects its analyte on a solid surface through an enzyme-linked reagent.)

The test system of another series is RT4. Briefly: MTS cell kill assay, RT4. The format is cell-based. Conditions: Homo sapiens, RT-4, RT4. Background: Formazan colour is commonly taken as a measure of viable cells.
The next series has as its system AN3-CA. Briefly: MTS cell kill assay, AN3-CA. In kind it is cell-based. The settings on record: Homo sapiens.
Another series deals with RT112. Description: MTS cell kill assay, RT112. In kind it is cell-based. Conditions: Homo sapiens, RT-112, RT112.
In series [1] the test system is SNU-16. Briefly: MTS assay, SNU-16. In kind it is cell-based. Conditions: Homo sapiens.
Protocol: (§1) Cells were maintained at 37° C., 5% CO2 in DMEM media supplemented with 1% fetal bovine serum, penicillin/streptomycin and fungizone (Invitrogen). Cells were seeded into 96-well tissue culture plates at 3000 per well and cultured at 37° C. for 18 hours. Test compounds were dissolved and diluted to 300× in DMSO then diluted 1:40 in DMEM.
The test system of the next series is PACA-2. Description: MTS cell kill, PACA-2. In kind it is cell-based.
Series [2] relates to KATO III. Briefly: MTS assay, KATO III. The format is cell-based.
Protocol: as §1
The next series relates to NCI-H1299. Description: MTS cell kill, NCI-H1299. The format is cell-based.
The test system of a further series is DLD-1. Briefly: MTS cell kill, DLD-1. In kind it is cell-based.
For a further series, the system named is PC-3. Briefly: MTS cell kill, PC-3. The format is cell-based.
In a further series the test system is MDA-MB-231. Description: MTS cell kill, MDA-MB-231. The format is cell-based.
In series [3] the test system is KATO III. Briefly: in vitro PD assay, KATO III. In kind it is cell-based. Conditions: Homo sapiens.
In series [4] the test system is SNU-16. Description: in vitro PD assay, SNU-16. In kind it is cell-based. The settings on record: Homo sapiens.
The mark [5] stands for this setting: SNU-16, SNU-16, read-out: MTS cell kill data (IC50-μM) SNU-16.

T1 sequence (P21802 456-770 N549H limits assumed): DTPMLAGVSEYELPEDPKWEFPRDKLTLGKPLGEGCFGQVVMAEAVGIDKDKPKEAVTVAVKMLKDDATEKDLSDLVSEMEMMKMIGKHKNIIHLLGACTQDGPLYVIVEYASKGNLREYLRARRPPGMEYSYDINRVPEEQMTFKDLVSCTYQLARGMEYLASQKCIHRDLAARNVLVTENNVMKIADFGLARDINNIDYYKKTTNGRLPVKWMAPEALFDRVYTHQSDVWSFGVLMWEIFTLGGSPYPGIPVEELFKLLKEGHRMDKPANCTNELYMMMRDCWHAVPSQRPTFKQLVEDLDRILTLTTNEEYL
Protocol for AN3-CA: as §1
Protocol for DLD-1: as §1
Protocol for MDA-MB-231: as §1
Protocol for NCI-H1299: as §1
Protocol for PACA-2: as §1
Protocol for PC-3: as §1
Protocol for RT112: as §1
Protocol for RT4: as §1

For orientation: IC50 means the midpoint of a concentration-inhibition curve. Regarding `COCCNCc1cccc(Nc2ncc3c(n2)-c2ccccc2[C@H](c2ccccc2F)C3)c1` [Example 178, (R)-6-(2-fluorophenyl)-N-(3-((2-methoxyethylamino)methyl)phenyl)-5,6-dihydrobenzo[h]quinazolin-2-amine hydrochloride], the IC50 on FGFR2 kinase came out at 0.0255 µM; in the series on RT4, 4.28 µM; in the series with AN3-CA, 1.77 µM; with RT112 it was 2.68 µM; with SNU-16 [1] (setting [5]) it was 0.711 µM.

For the compound `COCCN1CCN(CCc2ccc(Nc3ncc4c(n3)-c3ccccc3[C@H](c3ccccc3F)C4)cc2)CC1` [Example 66, (R)-6-(2-fluorophenyl)-N-(4-(2-(4-(2-methoxyethyl)piperazin-1-yl)ethyl)phenyl)-5,6-dihydrobenzo[h]quinazolin-2-amine hydrochloride], the IC50 is 0.014 µM at FGFR2 kinase, 1.55 µM in the series on RT4, 0.361 µM in the series on AN3-CA and 1.28 µM in the series with SNU-16 [1] (setting [5]).

Take `CN1CCN(CCc2cc(Nc3ncc4c(n3)-c3ccccc3[C@H](c3ccccc3F)C4)ccc2F)CC1` [Example 174, (R)-N-(4-fluoro-3-(2-(4-methylpiperazin-1-yl)ethyl)phenyl)-6-(2-fluorophenyl)-5,6-dihydrobenzo[h]quinazolin-2-amine hydrochloride salt]: the IC50 at FGFR2 kinase was 0.0433 µM; in the series with RT4, 3.54 µM; in the series on AN3-CA it was 2 µM; with RT112, 1.52 µM; in the series with SNU-16 [1] (setting [5]), 1.16 µM.

Broadly, the melting point is the temperature of the solid-liquid transition. `Fc1ccccc1[C@@H]1Cc2cnc(Nc3cccc(CCN4CCNCC4)c3)nc2-c2ccccc21` [Example 163, (R)-6-(2-fluorophenyl)-N-(3-(2-(piperazin-1-yl)ethyl)phenyl)-5,6-dihydrobenzo[h]quinazolin-2-amine] yielded a melting point of 165 to 167 °C. For the same compound, the concentration for half-maximal inhibition (IC50) at FGFR2 kinase was 0.0511 µM. For the same compound, it took 1.38 µM to reach half-maximal inhibition in the series on RT4 (IC50). This compound yielded an IC50 in the series on AN3-CA of 1.39 µM. Also, in the series on RT112, half-maximal inhibition (IC50) was put at 1.19 µM. The IC50 with SNU-16 [1] (setting [5]) is 0.894 µM.

As for `CN(C)CCCCNc1ncc2c(n1)-c1ccccc1C(c1ccc(NS(=O)(=O)c3cccc(C(F)(F)F)c3)cc1)C2` (stereo not drawn) [Example 430, N-[4-(2-{[4-(dimethylamino)butyl]amino}-5,6-dihydrobenzo[h]quinazolin-6-yl)phenyl]-3-(trifluoromethyl)benzenesulfonamide], the “MTS cell kill data (% inhibition) PACA-2” value in the series on PACA-2 was “A (A = 80-100% inhibition)”. For the same compound, the “MTS cell kill data (% inhibition) KATO III” value with KATO III [2] is recorded as “A (A = 80-100% inhibition)”. Moreover, in the series with NCI-H1299, the “MTS cell kill data (% inhibition) NCI-H1299” value is reported as “A (A = 80-100% inhibition)”. Moreover, the “MTS cell kill data (% inhibition) DLD-1” value in the series with DLD-1 is “A (A = 80-100% inhibition)”. For the same compound, the “MTS cell kill data (% inhibition) PC-3” value in the series with PC-3 was “A (A = 80-100% inhibition)”. The “MTS cell kill data (% inhibition) MDA-MB-231” value with MDA-MB-231 is listed as “A (A = 80-100% inhibition)”.

With `CCN(CC)CCNC(=O)c1c(C)[nH]c(/C=C2\C(=O)Nc3ccc(F)cc32)c1C` [Sunitinib, reference compound], the IC50 in the series on KATO III [3] was determined as 1600 nM; in the series on KATO III [2] (Homo sapiens, read-out: MTS IC50), 300 nM; in the series on SNU-16 [4], 4300 nM; in the series on SNU-16 [1] (SNU-16, read-out: MTS IC50), 1.1 µM.

With `COCCN1CCN(CCc2cccc(Nc3ncc4c(n3)-c3ccccc3[C@@H](c3ccccc3F)C4)c2)CC1` [Example 164, (S)-6-(2-fluorophenyl)-N-(3-(2-(4-(2-methoxyethyl)piperazin-1-yl)ethyl)phenyl)-5,6-dihydrobenzo[h]quinazolin-2-amine], the IC50 at FGFR2 kinase worked out at 0.047 µM; in the series with RT4, 2.97 µM; in the series on AN3-CA, 1.38 µM; with RT112, 1.51 µM; in the series with SNU-16 [1] (setting [5]) it was 1.34 µM.

In the case of `COc1ccc(OC)c(CC(=O)Nc2ccc(C3Cc4cnc(NCCCCN(C)C)nc4-c4ccccc43)cc2)c1` (stereo not drawn) [Example 473], the “MTS cell kill data (% inhibition) PACA-2” value with PACA-2 is reported as “A (A = 80-100% inhibition)”. Also, the “MTS cell kill data (% inhibition) KATO III” value in the series on KATO III [2] is reported as “A (A = 80-100% inhibition)”. The “MTS cell kill data (% inhibition) NCI-H1299” value in the series on NCI-H1299 is reported as “A (A = 80-100% inhibition)”. In addition, the “MTS cell kill data (% inhibition) DLD-1” value with DLD-1 is “A (A = 80-100% inhibition)”. In addition, the “MTS cell kill data (% inhibition) PC-3” value in the series with PC-3 is “A (A = 80-100% inhibition)”. Also, the “MTS cell kill data (% inhibition) MDA-MB-231” value in the series on MDA-MB-231 was “A (A = 80-100% inhibition)”.

As to `CN1CCN(CCc2cccc(Nc3ncc4c(n3)-c3ccccc3[C@H](c3ccccc3F)C4)c2)CC1` [Example 161, (R)-6-(2-fluorophenyl)-N-(3-(2-(4-methylpiperazin-1-yl)ethyl)phenyl)-5,6-dihydrobenzo[h]quinazolin-2-amine hydrochloride], the IC50 on FGFR2 kinase is 0.0174 µM; with RT4, 1.47 µM; in the series with AN3-CA, 0.738 µM; in the series on RT112 it was 0.627 µM; with SNU-16 [1] (setting [5]) it was 0.397 µM.

For `CN(C)CCCCNc1ncc2c(n1)-c1ccccc1C(c1ccc(NS(=O)(=O)c3cccc4cccnc34)cc1)C2` (stereo not drawn) [Example 434, N-[4-(2-{[4-(dimethylamino)butyl]amino}-5,6-dihydrobenzo[h]quinazolin-6-yl)phenyl]quinoline-8-sulfonamide], in the series with PACA-2, the “MTS cell kill data (% inhibition) PACA-2” value is given as “A (A = 80-100% inhibition)”. Further, in the series with KATO III [2], the “MTS cell kill data (% inhibition) KATO III” value is reported as “A (A = 80-100% inhibition)”. Also, the “MTS cell kill data (% inhibition) NCI-H1299” value in the series with NCI-H1299 is recorded as “A (A = 80-100% inhibition)”. For the same compound, the “MTS cell kill data (% inhibition) DLD-1” value in the series with DLD-1 is recorded as “A (A = 80-100% inhibition)”. In the series on PC-3, the “MTS cell kill data (% inhibition) PC-3” value is on record as “A (A = 80-100% inhibition)”. Moreover, the “MTS cell kill data (% inhibition) MDA-MB-231” value in the series with MDA-MB-231 is on record as “A (A = 80-100% inhibition)”.

`COCCN1CCN(CCc2cc(Nc3ncc4c(n3)-c3ccccc3[C@H](c3ccccc3F)C4)ccc2F)CC1` [Example 175, (R)-N-(4-fluoro-3-(2-(4-(2-methoxyethyl)piperazin-1-yl)ethyl)phenyl)-6-(2-fluorophenyl)-5,6-dihydrobenzo[h]quinazolin-2-amine hydrochloride salt]: the IC50 on FGFR2 kinase was found to be 0.0443 µM; in the series on RT4, 2.97 µM; with AN3-CA, 2.39 µM; in the series with RT112, 1.54 µM; in the series with SNU-16 [1] (setting [5]), 1.04 µM.

`Cc1ccc(S(=O)(=O)Nc2ccc(C3Cc4cnc(NCCCCN(C)C)nc4-c4ccccc43)cc2)cc1` (stereo not drawn) [Example 420, N-[4-(2-{[4-(dimethylamino)butyl]amino}-5,6-dihydrobenzo[h]quinazolin-6-yl)phenyl]-4-methylbenzenesulfonamide]: the “MTS cell kill data (% inhibition) PACA-2” value in the series with PACA-2 was “A (A = 80-100% inhibition)”. In addition, the “MTS cell kill data (% inhibition) KATO III” value with KATO III [2] is “A (A = 80-100% inhibition)”. Moreover, the “MTS cell kill data (% inhibition) NCI-H1299” value in the series with NCI-H1299 is on record as “A (A = 80-100% inhibition)”. Besides, the “MTS cell kill data (% inhibition) DLD-1” value in the series on DLD-1 was “A (A = 80-100% inhibition)”. The “MTS cell kill data (% inhibition) PC-3” value with PC-3 is recorded as “A (A = 80-100% inhibition)”. In the series with MDA-MB-231, the “MTS cell kill data (% inhibition) MDA-MB-231” value is on record as “A (A = 80-100% inhibition)”.

On to `CN(C)CCCCNc1ncc2c(n1)-c1ccccc1C(c1ccc(NS(=O)(=O)c3ccc(Br)s3)cc1)C2` (stereo not drawn) [Example 427, 5-bromo-N-[4-(2-{[4-(dimethylamino)butyl]amino}-5,6-dihydrobenzo[h]quinazolin-6-yl)phenyl]thiophene-2-sulfonamide], for which, in the series with PACA-2, the “MTS cell kill data (% inhibition) PACA-2” value was “A (A = 80-100% inhibition)”. Also, the “MTS cell kill data (% inhibition) KATO III” value in the series on KATO III [2] is on record as “A (A = 80-100% inhibition)”. The “MTS cell kill data (% inhibition) NCI-H1299” value in the series with NCI-H1299 is given as “A (A = 80-100% inhibition)”. Moreover, the “MTS cell kill data (% inhibition) DLD-1” value with DLD-1 was “A (A = 80-100% inhibition)”. In addition, the “MTS cell kill data (% inhibition) PC-3” value in the series with PC-3 was “B (B = 50-79% inhibition)”. The “MTS cell kill data (% inhibition) MDA-MB-231” value in the series on MDA-MB-231 was “A (A = 80-100% inhibition)”.
